In patent publication US9067934B2, “Bicyclic pyridinones” (Pfizer Inc., priority 2011, dated 2015):
Counter-ions that a name gives are not always drawn.

System: production of amyloid beta protein Aβ(1-42) (γ-secretase) in human WT-APP overexpressing CHO cells
Assay: Cell-Based γ-Secretase Assay with ELISA Readout
Settings: human WT-APP overexpressing CHO cells, ~24 hours at 37° C., Aβ(1-42) ELISA; footnotes: a = geometric mean of >15 determinations, b = single determination, c = geometric mean of 7-15 determinations; read-out: Aβ 42B IC50 (Geometric Mean of 2-6 Determinations)
Experimental: Cell-Based γ-Secretase Assay with ELISA Readout
The ability of compounds to modulate production of amyloid beta protein Aβ(1-42) was determined using human WT-APP overexpressing CHO cells. Cells were plated at 22,000 cells/100 μL well in 96 well tissue culture treated, clear plates (Falcon) in DMEM/F12 based medium and incubated for 24 hours at 37° C. Compounds for testing were diluted in 100% DMSO to achieve an eleven points, half log, dose response for IC50 determinations. Compounds were added in fresh medium to achieve 1% final DMSO. Appropriate vehicle or inhibitor controls were added into control wells individually to obtain minimum or maximum inhibition values, respectively, for the assay signal window before the plates were incubated for ˜24 hours at 37° C. This procedure produces conditioned media in each well which is tested for Aβ(1-42) levels in the ELISA detection step described next. The remaining cell cultures in each well are also tested for cell toxicity as described below.
Coating of ELISA assay plates was initiated by addition of 50 μL/well of an in-house Aβ(1-42) specific antibody at (3 μg/mL) in 0.1 M NaHCO3 (pH 9.0) into black 384-well Maxisorp® plates (Nunc) and incubated overnight at 4° C. The capture antibody was then aspirated from the ELISA assay plates and plates were washed 4×100 μL with Wash Buffer (Dulbecco's PBS, 0.05% Tween 20). 90 μL/well of Blocking Buffer (Dulbecco's PBS, 1.0% BSA (Sigma A7030)) was then added to plates. Ambient temperature incubation was allowed to proceed for a minimum of two hours. Blocking buffer was then removed and 20 μL/well Assay Buffer (Dulbecco's PBS, 1.0% BSA (Sigma A7030), 0.05% Tween 20) was then added. At this point, 40 μL (in duplicate) of experimental conditioned media (described above) were transferred into wells of the blocked ELISA plates containing the capture antibody, followed by overnight incubation at 4° C. Cell toxicity was also measured in the corresponding remaining cells after removal of the conditioned media for the Aβ(1-42) assay by a colorimetric cell proliferation assay (CellTiter 96® AQueous One Solution Cell Proliferation Assay, Promega) according to the manufacturer's instructions.
After overnight incubation of the ELISA assay plates at 4° C., unbound Aβ peptides were removed via (4×100 μL) washes with Wash Buffer. Europium (Eu) labeled (custom labeled, Perkin Elmer) Aβ(1-16) 6e10 Monoclonal Antibody (Covance #SIG-39320) was added, (50 μL/well Eu-6e10 @ 1:10,000, 20 uM EDTA) in Assay Buffer. Incubation at ambient temperature for a minimum of 2 hours was followed by (4×100 μL) washes with Wash Buffer, before 30 μL/well of Delfia Enhancement Solution (Perkin Elmer) was added. Following an one hour ambient temperature incubation, the plates were read on an EnVision plate reader (Perkin Elmer) using standard DELFIA TRF settings. Data analysis including inhibitory IC50 determination was performed using nonlinear regression fit analysis (in-house software) and the appropriate plate mean values for the maximum and minimum inhibition controls.

SMILES | IC50
Cc1cn(-c2ccc3n(c2=O)CCN(CCOc2cc(Cl)cc(Cl)c2Cl)C3=O)cn1 [Example 10, 7-(4-methyl-1H-imidazol-1-yl)-2-[2-(2,3,5-trichlorophenoxy)ethyl]-3,4-dihydro-2H-pyrido[1,2-a]pyrazine-1,6-dione] | 127 nM
Cc1cn(-c2ccc3n(c2=O)CCN(CCOc2ccccc2-c2cc(C)ns2)C3=O)cn1 [Example 24, 7-(4-methyl-1H-imidazol-1-yl)-2-{2-[2-(3-methylisothiazol-5-yl)phenoxy]ethyl}-3,4-dihydro-2H-pyrido[1,2-a]pyrazine-1,6-dione] | 104 nM
Cc1cc(-c2ccc3n(c2=O)CCN(CCOc2ccc(Cl)cc2C(F)(F)F)C3=O)ccn1 [Example 116, 2-{2-[4-chloro-2-(trifluoromethyl)phenoxy]ethyl}-7-(2-methylpyridin-4-yl)-3,4-dihydro-2H-pyrido[1,2-a]pyrazine-1,6-dione] | 3490 nM
Cc1cn(-c2ccc3n(c2=O)CCN(CCOc2ccc(F)cc2-c2ccnc(C(F)(F)F)c2)C3=O)cn1 [Example 48, 2-(2-{4-fluoro-2-[2-(trifluoromethyl)pyridin-4-yl]phenoxy}ethyl)-7-(4-methyl-1H-imidazol-1-yl)-3,4-dihydro-2H-pyrido[1,2-a]pyrazine-1,6-dione] | 143 nM
Cc1cn(-c2ccc3n(c2=O)CCN(CCOc2ccc(Cl)c(F)c2C(F)(F)F)C3=O)cn1 [Example 45, 2-{2-[4-chloro-3-fluoro-2-(trifluoromethyl)phenoxy]ethyl}-7-(4-methyl-1H-imidazol-1-yl)-3,4-dihydro-2H-pyrido[1,2-a]pyrazine-1,6-dione, trifluoroacetate salt] | 66.3 nM
C#CCCCOc1ccc(C(=O)c2cccc(OCCN3CCn4c(ccc(-n5cnc(C)c5)c4=O)C3=O)c2)cc1 [Example 70, 7-(4-methyl-1H-imidazol-1-yl)-2-(2-{3-[4-(pent-4-yn-1-yloxy)benzoyl]phenoxy}ethyl)-3,4-dihydro-2H-pyrido[1,2-a]pyrazine-1,6-dione] | 135 nM
Cc1cn(-c2ccc3n(c2=O)CCN(CCOc2ccc(F)c4ccc(F)cc24)C3=O)cn1 [Example 98, 2-{2-[(4,7-difluoronaphthalen-1-yl)oxy]ethyl}-7-(4-methyl-1H-imidazol-1-yl)-3,4-dihydro-2H-pyrido[1,2-a]pyrazine-1,6-dione] | 19.4 nM
Cc1cn(-c2ccc3n(c2=O)CCN(CCOc2cccc4c2CCC4)C3=O)cn1 [Example 16, 2-[2-(2,3-dihydro-1H-inden-4-yloxy)ethyl]-7-(4-methyl-1H-imidazol-1-yl)-3,4-dihydro-2H-pyrido[1,2-a]pyrazine-1,6-dione] | 234 nM
Cc1cn(-c2ccc3n(c2=O)CCN(CCOc2ccc(Cl)c4ccccc24)C3=O)cn1 [Example 6, 2-{2-[(4-chloro-1-naphthyl)oxy]ethyl}-7-(4-methyl-1H-imidazol-1-yl)-3,4-dihydro-2H-pyrido[1,2-a]pyrazine-1,6-dione] | 36.5 nM
Cc1cn(-c2ccc3n(c2=O)CCN(CCOc2nsc4ccc(Cl)cc24)C3=O)cn1 [Example 77, 2-{2-[(5-chloro-1,2-benzisothiazol-3-yl)oxy]ethyl}-7-(4-methyl-1H-imidazol-1-yl)-3,4-dihydro-2H-pyrido[1,2-a]pyrazine-1,6-dione] | 66.2 nM
Cc1cn(-c2ccc3n(c2=O)CCN(CCOc2ccc(Cl)cc2-c2cc(C(F)(F)F)[nH]n2)C3=O)cn1 [Example 59, 2-(2-{4-chloro-2-[5-(trifluoromethyl)-1H-pyrazol-3-yl]phenoxy}ethyl)-7-(4-methyl-1H-imidazol-1-yl)-3,4-dihydro-2H-pyrido[1,2-a]pyrazine-1,6-dione] | 530 nM
Cc1cn(-c2ccc3n(c2=O)CCN(CCOc2nccc4oc5ccccc5c24)C3=O)cn1 [Example 74, 2-[2-([1]benzofuro[3,2-c]pyridin-1-yloxy)ethyl]-7-(4-methyl-1H-imidazol-1-yl)-3,4-dihydro-2H-pyrido[1,2-a]pyrazine-1,6-dione] | 38.5 nM
Cc1cn(-c2ccc3n(c2=O)CCN(C(C)C(C)Oc2ccccc2S(F)(F)(F)(F)F)C3=O)cn1 (stereo not drawn) [Example 123, 7-(4-methyl-1H-imidazol-1-yl)-2-{3-[2-(pentafluoro-λ^6-sulfanyl)phenoxy]butan-2-yl}-3,4-dihydro-2H-pyrido[1,2-a]pyrazine-1,6-dione] | 106 nM
COc1ccc(-c2cc(C(F)(F)F)[nH]n2)c(OCCN2CCn3c(ccc(-n4cnc(C)c4)c3=O)C2=O)c1 [Example 54, 2-(2-{5-methoxy-2-[5-(trifluoromethyl)-1H-pyrazol-3-yl]phenoxy}ethyl)-7-(4-methyl-1H-imidazol-1-yl)-3,4-dihydro-2H-pyrido[1,2-a]pyrazine-1,6-dione] | 215 nM
Cc1cn(-c2ccc3n(c2=O)CCN(CCOc2noc4ccc(Cl)cc24)C3=O)cn1 [Example 82, 2-{2-[(5-chloro-1,2-benzisoxazol-3-yl)oxy]ethyl}-7-(4-methyl-1H-imidazol-1-yl)-3,4-dihydro-2H-pyrido[1,2-a]pyrazine-1,6-dione] | 209 nM
Cc1cn(-c2ccc3n(c2=O)CCN(CCOc2cnc(C(F)(F)F)c4ccccc24)C3=O)cn1 [Example 86, 7-(4-methyl-1H-imidazol-1-yl)-2-(2-{[1-(trifluoromethyl)isoquinolin-4-yl]oxy}ethyl)-3,4-dihydro-2H-pyrido[1,2-a]pyrazine-1,6-dione, trifluoroacetate salt] | 107 nM
Cc1cn(-c2ccc3n(c2=O)CCN(CCOc2ccccc2OC(F)(F)F)C3=O)cn1 [Example 15, 7-(4-methyl-1H-imidazol-1-yl)-2-{2-[2-(trifluoromethoxy)phenoxy]ethyl}-3,4-dihydro-2H-pyrido[1,2-a]pyrazine-1,6-dione] | 275 nM
Cc1cn(-c2ccc3n(c2=O)CCN(CCOc2ccccc2-c2ccc4c(c2)OCO4)C3=O)cn1 [Example 91, 2-{2-[2-(1,3-benzodioxol-5-yl)phenoxy]ethyl}-7-(4-methyl-1H-imidazol-1-yl)-3,4-dihydro-2H-pyrido[1,2-a]pyrazine-1,6-dione, formate salt] | 120 nM
Cc1cn(-c2ccc3n(c2=O)CCN(CCCOc2cc(C)c(Cl)c(C)c2)C3=O)cn1 [Example 28, 2-[3-(4-chloro-3,5-dimethylphenoxy)propyl]-7-(4-methyl-1H-imidazol-1-yl)-3,4-dihydro-2H-pyrido[1,2-a]pyrazine-1,6-dione] | 31.9 nM
Cc1cn(-c2ccc3n(c2=O)CCN(CCOc2ccc(C(F)(F)F)nc2C(F)(F)F)C3=O)cn1 [Example 31, 2-(2-{[2,6-bis(trifluoromethyl)pyridin-3-yl]oxy}ethyl)-7-(4-methyl-1H-imidazol-1-yl)-3,4-dihydro-2H-pyrido[1,2-a]pyrazine-1,6-dione] | 96.8 nM
Cc1cn(-c2ccc3n(c2=O)CCN(CCOc2ccc(F)c(Cl)c2Cl)C3=O)cn1 [Example 23, 2-[2-(2,3-dichloro-4-fluorophenoxy)ethyl]-7-(4-methyl-1H-imidazol-1-yl)-3,4-dihydro-2H-pyrido[1,2-a]pyrazine-1,6-dione] | 173 nM
Cc1cn(-c2ccc3n(c2=O)CCN(CCOc2ccccc2-c2cc(C(F)(F)F)on2)C3=O)cn1 [Example 39, 7-(4-methyl-1H-imidazol-1-yl)-2-(2-{2-[5-(trifluoromethyl)isoxazol-3-yl]phenoxy}ethyl)-3,4-dihydro-2H-pyrido[1,2-a]pyrazine-1,6-dione, trifluoroacetate salt] | 525 nM
Cc1cn(-c2ccc3n(c2=O)CCN(CCOc2ccc(Cl)cc2C(F)(F)F)C3=O)cn1 [Example 22, 2-{2-[4-chloro-2-(trifluoromethyl)phenoxy]ethyl}-7-(4-methyl-1H-imidazol-1-yl)-3,4-dihydro-2H-pyrido[1,2-a]pyrazine-1,6-dione] | 103 nM
Cc1cn(-c2ccc3n(c2=O)CCN(CCOc2cccc(C(F)(F)F)c2Cl)C3=O)cn1 [Example 20, 2-{2-[2-chloro-3-(trifluoromethyl)phenoxy]ethyl}-7-(4-methyl-1H-imidazol-1-yl)-3,4-dihydro-2H-pyrido[1,2-a]pyrazine-1,6-dione] | 157 nM
